Where only a bound is given, the exact number is not on record here.

This assay deals with TGF-β activation (phosphorylated SMAD3). Description: TGF-β activation inhibition test (inhibition of SMAD3 phosphorylation in TFK-1 cells). The conditions noted are these: 48 h, fibronectin-coated plate, cultured 2 days, read-out: IC50 (rate of inhibition of phosphorylated SMAD3). In kind it is cell-based. The protocol: In Test Example 3, the inhibition of TGF-β activation by a compound was detected with the inhibition of SMAD3 phosphorylation as an index. In Test Example 3, the same reagents as in Test Example 1 were used unless otherwise specified.
Human fibronectin was prepared at 14 μg/mL with PBS and then dispensed at 50 μL/well to a 96-well plate. The plate was left standing at room temperature for 1 hour or longer, followed by the removal of the fibronectin solution. The plate was washed with PBS and used as a coated plate.
A test compound dissolved in DMSO was added to RPMI medium 1640 (manufactured by Thermo Fisher Scientific, Inc., 11875) containing 1% FBS and 1% penicillin/streptomycin/amphotericin B to prepare a medium containing the test compound having a concentration of two times the final concentration. This medium was added at 100 μL/well to the coated plate. TFK-1 cells (Cell Resource Center for Biomedical Research, Institute of Development, Aging and Cancer, Tohoku University) cultured in RPMI medium 1640 containing 10% FBS and 1% penicillin/streptomycin/amphotericin B were suspended in RPMI medium 1640 containing 1% FBS and 1% penicillin/streptomycin/amphotericin B to prepare a cell suspension of 1×10^6 cells/mL. The prepared cell suspension was further added at 100 μL/well and cultured for 2 days in a 5% CO2 incubator (37° C.).
Phosphorylated SMAD3 in the cells thus cultured for 2 days was measured using Phospho-SMAD3 (Ser423/425) cellular kit (manufactured by cisbio, 63ADK025), and a DeltaF value was calculated according to the calculation expression of the kit. Inhibition when 10 μM LY364947 (FUJIFILM Wako Pure Chemical Corp., 123-05981) was added instead of the test compound was defined as 100% inhibition, and inhibition when DMSO was added instead was defined as 0% inhibition. The rate of inhibition of phosphorylated SMAD3 by the test compound was calculated according to the following expression.
Rate of inhibition of phosphorylated SMAD3 (%)=[1−{(DeltaF value in the case of adding the test compound)−(DeltaF value in the case of adding 10 μM LY364947)}/{(DeltaF value in the case of adding DMSO)−(DeltaF value in the case of adding 10 μM LY364947)}]×100
An IC50 value was calculated from the rate of inhibition of phosphorylated SMAD3 by the test compound. A: IC50<10 nM, B: 10 nM≤IC50<50 nM, C: 50 nM≤IC50<100 nM, or D: IC50≥100 nM.
Usually IC50 stands for the midpoint of a concentration-inhibition curve. On to `O=C(O)C[C@H](NC(=O)CNC(=O)c1cc(NC2=NCC(F)CN2)c2cn[nH]c2c1)c1cccc(-n2cccn2)c1` (stereo partly drawn) [Example 43-(b), (3S)-3-(3-(1H-pyrazol-1-yl)phenyl)-3-(2-(4-((5-fluoro-1,4,5,6-tetrahydropyrimidin-2-yl)amino)-1H-indazole-6-carboxamido)acetamido)propanoic acid], for which the IC50 is below 10 nM. Regarding `Cc1cc(C)n(-c2cccc([C@H](CC(=O)O)NC(=O)CNC(=O)c3cc(NC4=NCC(F)CN4)c4cn[nH]c4c3)c2)n1` (stereo partly drawn) [Example 44-(b), (3S)-3-(3-(3,5-dimethyl-1H-pyrazol-1-yl)phenyl)-3-(2-(4-((5-fluoro-1,4,5,6-tetrahydropyrimidin-2-yl)amino)-1H-indazole-6-carboxamido)acetamido)propanoic acid], the IC50 is below 10 nM. With `O=C(O)C[C@H](NC(=O)CNC(=O)c1cc(NC2=NCC(F)CN2)c2cn[nH]c2c1)c1cccc(N2CCOCC2)c1` (stereo partly drawn) [Example 45-(b), (3S)-3-(2-(4-((5-fluoro-1,4,5,6-tetrahydropyrimidin-2-yl)amino)-1H-indazole-6-carboxamido)acetamido)-3-(3-morpholinophenyl)propanoic acid], the IC50 lay within 10 to 50 nM. Under `O=C(O)C[C@H](NC(=O)CNC(=O)c1cc(NC2=NCC(F)CN2)c2cn[nH]c2c1)c1ccc(OC(F)F)cc1` (stereo partly drawn) [Example 46-(b), (3S)-3-(4-(difluoromethoxy)phenyl)-3-(2-(4-((5-fluoro-1,4,5,6-tetrahydropyrimidin-2-yl)amino)-1H-indazole-6-carboxamido)acetamido)propanoic acid] stands 50 to 100 nM; under `O=C(O)C[C@H](NC(=O)CNC(=O)c1cc(NC2=NCC(F)CN2)c2cn[nH]c2c1)c1ccc(C(F)(F)F)cc1` (stereo partly drawn) [Example 47-(b), (3S)-3-(2-(4-((5-fluoro-1,4,5,6-tetrahydropyrimidin-2-yl)amino)-1H-indazole-6-carboxamido)acetamido)-3-(4-(trifluoromethyl)phenyl)propanoic acid], 10 to 50 nM. In the case of `O=C(O)C[C@H](NC(=O)CNC(=O)c1cc(NC2=NCC(F)CN2)c2c(F)n[nH]c2c1)c1cc(Cl)cc(C(F)(F)F)c1` (stereo partly drawn) [Example 48-(b), (3S)-3-(3-chloro-5-(trifluoromethyl)phenyl)-3-(2-(3-fluoro-4-((5-fluoro-1,4,5,6-tetrahydropyrimidin-2-yl)amino)-1H-indazole-6-carboxamido)acetamido) propanoic acid], the IC50 was below 10 nM. For the molecule `O=C(O)C[C@H](NC(=O)CNC(=O)c1cc(NC2=NCC(F)CN2)c2c(Cl)n[nH]c2c1)c1cc(Cl)cc(C(F)(F)F)c1` (stereo partly drawn) [Example 49-(b), (3S)-3-(2-(3-chloro-4-((5-fluoro-1,4,5,6-tetrahydropyrimidin-2-yl)amino)-1H-indazole-6-carboxamido)acetamido)-3-(3-chloro-5-(trifluoromethyl)phenyl)propanoic acid], the IC50 is below 10 nM. Under `O=C(O)C[C@H](NC(=O)CNC(=O)c1cc(NC2=NCC(O)CN2)c2cn[nH]c2c1)c1cc(Cl)cc(C(F)(F)F)c1` (stereo partly drawn) [Example 50-(b), (3S)-3-(3-chloro-5-(trifluoromethyl)phenyl)-3-(2-(4-((5-hydroxy-1,4,5,6-tetrahydropyrimidin-2-yl)amino)-1H-indazole-6-carboxamido)acetamido)propanoic acid] stands at least 100 nM. As to `O=C(O)C[C@H](NC(=O)CNC(=O)c1cc(NC2=NCCCN2)c2cn[nH]c2c1)c1cc(Cl)cc(C(F)(F)F)c1` [Example 51-(b), (S)-3-(3-chloro-5-(trifluoromethyl)phenyl)-3-(2-(4-((1,4,5,6-tetrahydropyrimidin-2-yl)amino)-1H-indazole-6-carboxamido)acetamido)propanoic acid], the concentration for half-maximal inhibition (IC50) is 50 to 100 nM. As to `O=C(O)C[C@H](NC(=O)CNC(=O)c1cc(NC2=NCC(F)CN2)cc2[nH]ncc12)c1cc(Cl)cc(C(F)(F)F)c1` (stereo partly drawn) [Example 52-(b), (3S)-3-(3-chloro-5-(trifluoromethyl)phenyl)-3-(2-(6-((5-fluoro-1,4,5,6-tetrahydropyrimidin-2-yl)amino)-1H-indazole-4-carboxamido)acetamido)propanoic acid], the half-inhibitory concentration (IC50) is below 10 nM.

For the origin of these results see patent publication US20230192661A1, “1, 4, 5, 6-TETRAHYDROPYRIMIDINE-2-AMINE DERIVATIVE” (UBE Corporation, priority 2020, published 2023).
